{"source": "PubChem BioAssay AID1259409", "about": "(Chemical Carcinogenesis Research Information System (CCRIS), 2018)", "origin": "cited, not measured here", "system": "rodent chemically induced tumor inhibition, incidence and multiplicity", "assay": "CCRIS tumor inhibitor studies", "details": "Route [Inhibitor]: ORAL, Promoter: NONE USED"}
{"smiles": "COc1ccc([C@@H]2CC(=O)c3c(O)cc(O[C@@H]4O[C@H](CO[C@@H]5O[C@@H](C)[C@H](O)[C@@H](O)[C@H]5O)[C@@H](O)[C@H](O)[C@H]4O)cc3O2)cc1O", "values": [{"measurement": "tumour outcome (control, treated, inhibition, significance)", "setting": "Carcinogen: AZOXYMETHANE, 25843-45-2, Dose [Inhibitor]: 0, 1000 PPM IN DIET FOR 28 WK BEGINNING 1 WK POST CARCINOGEN TREATMENT (STUDY DURATION: 32 WK), Species: RAT, Strain/Sex: F344/MALE, Target Tissue: Type of Lesion: SMALL INTESTINE: TUMOR, Dose [Carcinogen]: 15 MG/KG BW 1/WK FOR 3 WK", "value": "5/17 (29%), 0/20 (0%), 100%, p<0.05"}, {"measurement": "tumour outcome (control, treated, inhibition, significance)", "setting": "Carcinogen: N-BUTYL-N-(4-HYDROXYBUTYL)NITROSAMINE, 3817-11-6, Dose [Inhibitor]: 0, 1000 PPM IN DIET FOR 8 WK BEGINNING 1 WK PRIOR TO CARCINOGEN TREATMENT (STUDY DURATION: 32 WK), Species: MOUSE, Strain/Sex: ICR/MALE, Target Tissue: Type of Lesion: URINARY BLADDER: PAPILLOMA, Dose [Carcinogen]: 500 PPM IN DRINKING WATER FOR 6 WK", "value": "5/26 (19%), 1/23 (4%), 79%, not significant"}, {"measurement": "tumour outcome (control, treated, inhibition, significance)", "setting": "Carcinogen: N-BUTYL-N-(4-HYDROXYBUTYL)NITROSAMINE, 3817-11-6, Dose [Inhibitor]: 0, 1000 PPM IN DIET FOR 24 WK BEGINNING 1 WK POST CARCINOGEN TREATMENT (STUDY DURATION: 32 WK), Species: MOUSE, Strain/Sex: ICR/MALE, Target Tissue: Type of Lesion: URINARY BLADDER: PAPILLOMA, Dose [Carcinogen]: 500 PPM IN DRINKING WATER FOR 6 WK", "value": "5/26 (19%), 3/25 (12%), 37%, not significant"}, {"measurement": "tumour outcome (control, treated, inhibition, significance)", "setting": "Carcinogen: N-BUTYL-N-(4-HYDROXYBUTYL)NITROSAMINE, 3817-11-6, Dose [Inhibitor]: 0, 1000 PPM IN DIET FOR 24 WK BEGINNING 1 WK POST CARCINOGEN TREATMENT (STUDY DURATION: 32 WK), Species: MOUSE, Strain/Sex: ICR/MALE, Target Tissue: Type of Lesion: URINARY BLADDER: TRANSITIONAL CELL CARCINOMA, Dose [Carcinogen]: 500 PPM IN DRINKING WATER FOR 6 WK", "value": "16/26 (62%), 5/25 (20%), 68%, p<0.005"}, {"measurement": "tumour outcome (control, treated, inhibition, significance)", "setting": "Carcinogen: N-BUTYL-N-(4-HYDROXYBUTYL)NITROSAMINE, 3817-11-6, Dose [Inhibitor]: O, 1000 PPM IN DIET FOR 8 WK BEGINNING 1 WK PRIOR TO CARCINOGEN TREATMENT (STUDY DURATION: 32 WK), Species: MOUSE, Strain/Sex: ICR/MALE, Target Tissue: Type of Lesion: URINARY BLADDER: TRANSITIONAL CELL CARCINOMA, Dose [Carcinogen]: 500 PPM IN DRINKING WATER FOR 6 WK", "value": "16/26 (62%), 3/23 (13%), 79%, p<0.001"}, {"measurement": "tumour outcome (control, treated, inhibition, significance)", "setting": "Carcinogen: N-METHYL-N-AMYLNITROSAMINE, 13256-07-0, Dose [Inhibitor]: 0, 1000 PPM IN DIET FOR 7 WK BEGINNING 1 WK POST CARCINOGEN TREATMENT (STUDY DURATION: 20 WK), Species: RAT, Strain/Sex: WISTAR/MALE, Target Tissue: Type of Lesion: ESOPHAGUS: SQUAMOUS CELL CARCINOMA, Dose [Carcinogen]: 12.5 MG/KG BW 1/WK FOR 12 WK", "value": "75%, 56%, 25%, not significant"}, {"measurement": "tumour outcome (control, treated, inhibition, significance)", "setting": "Carcinogen: N-METHYL-N-AMYLNITROSAMINE, 13256-07-0, Dose [Inhibitor]: 0, 1000 PPM IN DIET FOR 7 WK BEGINNING 1 WK POST CARCINOGEN TREATMENT (STUDY DURATION: 20 WK), Species: RAT, Strain/Sex: WISTAR/MALE, Target Tissue: Type of Lesion: ESOPHAGUS: SQUAMOUS CELL PAPILLOMA, Dose [Carcinogen]: 12.5 MG/KG BW 1/WK FOR 12 WK", "value": "100%, 100%, 0%, not significant"}, {"measurement": "tumour outcome (control, treated, inhibition, significance)", "setting": "Carcinogen: N-METHYL-N-AMYLNITROSAMINE, 13256-07-0, Dose [Inhibitor]: 0, 1000 PPM IN DIET FOR 7 WK BEGINNING 1 WK POST CARCINOGEN TREATMENT (STUDY DURATION: 20 WK), Species: RAT, Strain/Sex: WISTAR/MALE, Target Tissue: Type of Lesion: TONGUE: SQUAMOUS CELL CARCINOMA, Dose [Carcinogen]: 12.5 MG/KG BW 1/WK FOR 12 WK", "value": "17%, 16%, 6%, not significant"}, {"measurement": "tumour outcome (control, treated, inhibition, significance)", "setting": "Carcinogen: N-METHYL-N-AMYLNITROSAMINE, 13256-07-0, Dose [Inhibitor]: 0, 1000 PPM IN DIET FOR 7 WK BEGINNING 1 WK POST CARCINOGEN TREATMENT (STUDY DURATION: 20 WK), Species: RAT, Strain/Sex: WISTAR/MALE, Target Tissue: Type of Lesion: TONGUE: SQUAMOUS CELL PAPILLOMA, Dose [Carcinogen]: 12.5 MG/KG BW 1/WK FOR 12 WK", "value": "33%, 16%, 52%, not calculated"}, {"measurement": "tumour outcome (control, treated, inhibition, significance)", "setting": "Carcinogen: N-METHYL-N-AMYLNITROSAMINE, 13256-07-0, Dose [Inhibitor]: 0, 1000 PPM IN DIET FOR 13 WK BEGINNING 1 WK PRIOR TO CARCINOGEN TREATMENT (STUDY DURATION: 20 WK), Species: RAT, Strain/Sex: WISTAR/MALE, Target Tissue: Type of Lesion: ESOPHAGUS: SQUAMOUS CELL CARCINOMA, Dose [Carcinogen]: 12.5 MG/KG BW 1/WK FOR 12 WK", "value": "75%, 45%, 40%, not significant"}, {"measurement": "tumour outcome (control, treated, inhibition, significance)", "setting": "Carcinogen: N-METHYL-N-AMYLNITROSAMINE, 13256-07-0, Dose [Inhibitor]: 0, 1000 PPM IN DIET FOR 13 WK BEGINNING 1 WK PRIOR TO CARCINOGEN TREATMENT (STUDY DURATION: 20 WK), Species: RAT, Strain/Sex: WISTAR/MALE, Target Tissue: Type of Lesion: ESOPHAGUS: SQUAMOUS CELL PAPILLOMA, Dose [Carcinogen]: 12.5 MG/KG BW 1/WK FOR 12 WK", "value": "100%, 100%, 0%, not significant"}, {"measurement": "tumour outcome (control, treated, inhibition, significance)", "setting": "Carcinogen: N-METHYL-N-AMYLNITROSAMINE, 13256-07-0, Dose [Inhibitor]: 0, 1000 PPM IN DIET FOR 13 WK BEGINNING 1 WK PRIOR TO CARCINOGEN TREATMENT (STUDY DURATION: 20 WK), Species: RAT, Strain/Sex: WISTAR/MALE, Target Tissue: Type of Lesion: TONGUE: SQUAMOUS CELL CARCINOMA, Dose [Carcinogen]: 12.5 MG/KG BW 1/WK FOR 12 WK", "value": "17%, 0%, 100%, not calculated"}, {"measurement": "tumour outcome (control, treated, inhibition, significance)", "setting": "Carcinogen: N-METHYL-N-AMYLNITROSAMINE, 13256-07-0, Dose [Inhibitor]: 0, 1000 PPM IN DIET FOR 13 WK BEGINNING 1 WK PRIOR TO CARCINOGEN TREATMENT (STUDY DURATION: 20 WK), Species: RAT, Strain/Sex: WISTAR/MALE, Target Tissue: Type of Lesion: TONGUE: SQUAMOUS CELL PAPILLOMA, Dose [Carcinogen]: 12.5 MG/KG BW 1/WK FOR 12 WK", "value": "33%, 10%, 70%, not significant"}]}
